Measurements as given in paper PMC10467532, “Design, synthesis, and biological evaluation of thiazole/thiadiazole carboxamide scaffold-based derivatives as potential c-Met kinase inhibitors for cancer treatment” (Journal of Enzyme Inhibition and Medicinal Chemistry, 2023).

Tests used:
[1] = tested on: FHC; test: MTT cytotoxicity assay, normal FHC cells; details: Homo sapiens, 48 h, read-out: IC50 FHC
Protocol: (§1) MTT assay was used to determine the cytotoxic activity of target compounds against different cell lines. […] Then, the cells were treated with five doses of test compounds (pre-dissolved in DMSO), and 0.1% DMSO was used as a negative control. […] The results expressed as IC50 were the average of three determinations calculated by using the Bacus Laboratories Incorporated Slide Scanner (Bliss) software.

[2] = target: T1, c-Met (Homo sapiens, UniProt P08581); test: In vitro c-Met enzymatic assay (HTRF); assay type: biochemical; details: HTRF assay; mean ± SD, triplicate; read-out: IC50 against c-Met
T1 construct: purchased Invitrogen (Waltham, MA)
T1 sequence (P08581 25-1390): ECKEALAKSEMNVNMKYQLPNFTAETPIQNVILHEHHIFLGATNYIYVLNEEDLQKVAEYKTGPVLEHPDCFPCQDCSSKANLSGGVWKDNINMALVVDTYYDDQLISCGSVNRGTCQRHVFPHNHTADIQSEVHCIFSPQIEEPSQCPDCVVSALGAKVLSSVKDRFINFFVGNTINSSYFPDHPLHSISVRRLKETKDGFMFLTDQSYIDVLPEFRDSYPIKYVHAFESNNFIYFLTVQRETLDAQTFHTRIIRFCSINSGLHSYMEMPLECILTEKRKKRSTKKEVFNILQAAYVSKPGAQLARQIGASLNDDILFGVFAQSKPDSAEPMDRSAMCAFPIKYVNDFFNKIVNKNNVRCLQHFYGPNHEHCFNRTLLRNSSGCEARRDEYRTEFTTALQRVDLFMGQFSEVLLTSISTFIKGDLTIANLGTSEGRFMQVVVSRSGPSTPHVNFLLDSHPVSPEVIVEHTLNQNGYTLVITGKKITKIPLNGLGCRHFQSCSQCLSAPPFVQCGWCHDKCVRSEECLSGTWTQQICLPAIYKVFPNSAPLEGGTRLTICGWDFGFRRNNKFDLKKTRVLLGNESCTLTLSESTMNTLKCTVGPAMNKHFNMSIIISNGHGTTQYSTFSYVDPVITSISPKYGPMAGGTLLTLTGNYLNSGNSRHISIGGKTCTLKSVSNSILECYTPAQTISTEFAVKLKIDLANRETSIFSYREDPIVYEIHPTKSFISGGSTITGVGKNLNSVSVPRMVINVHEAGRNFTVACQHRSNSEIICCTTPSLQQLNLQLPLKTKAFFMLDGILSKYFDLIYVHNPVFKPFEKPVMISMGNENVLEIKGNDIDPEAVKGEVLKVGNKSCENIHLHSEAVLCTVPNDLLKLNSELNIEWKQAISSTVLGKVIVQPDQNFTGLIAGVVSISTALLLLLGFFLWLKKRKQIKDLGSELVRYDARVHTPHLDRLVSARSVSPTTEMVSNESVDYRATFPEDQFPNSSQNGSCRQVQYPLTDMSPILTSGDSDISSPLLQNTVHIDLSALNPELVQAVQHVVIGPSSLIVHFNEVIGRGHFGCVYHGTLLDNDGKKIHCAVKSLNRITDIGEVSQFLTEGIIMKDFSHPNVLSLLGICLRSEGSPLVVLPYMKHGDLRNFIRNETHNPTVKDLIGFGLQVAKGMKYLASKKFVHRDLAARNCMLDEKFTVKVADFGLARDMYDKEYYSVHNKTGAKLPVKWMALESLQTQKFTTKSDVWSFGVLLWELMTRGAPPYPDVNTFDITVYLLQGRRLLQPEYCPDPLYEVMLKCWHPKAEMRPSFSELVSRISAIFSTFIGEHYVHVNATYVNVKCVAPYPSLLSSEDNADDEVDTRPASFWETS
Protocol: Inhibition of target compounds on c-Met kinase activity was measured by using the homogeneous time-resolved fluorescence (HTRF) assay.
The tyrosine kinases inhibitory activities of target compounds were evaluated in 384-well microtiter plates using purified kinases purchased from Invitrogen (Waltham, MA) by homogeneous time-resolved fluorescence (HTRF) assay. The HTRF KinEASE TK kit was performed according to the instructions. After the kinases and test compounds were incubated at 25–30 °C for 5 min, the kinase reactions were initiated by addition of 39 μL of kinase reaction buffer solution and incubated at 25–30 °C for 30 min. The reactions were quenched by addition 10 µL mixed detection solution. […] The inhibition rate (%) was calculated using the following equation: inhibition rate = [(activity of enzyme with tested compound – min)/(max – min)] × 100 (max: the enzyme activity in the presence of enzyme, substrates and cofactors; min: the enzyme activity in the presence of substrates, cofactors and in the absence of enzyme). IC50 value was calculated from the inhibition curve using GraphPad Prism 5.0 software (La Jolla, CA).

[3] = tested on: MKN-45; test: MTT antiproliferative assay, MKN-45; details: Homo sapiens, MKN-45, 48 h, read-out: IC50 MKN-45
Protocol: as §1

[4] = tested on: MDA-MB-231; test: MTT antiproliferative assay, MDA-MB-231; details: Homo sapiens, MDA-MB-231, 48 h, read-out: IC50 MDA-MB-231
Protocol: as §1

[5] = tested on: HUVEC; test: MTT cytotoxicity assay, normal HUVEC cells; details: Homo sapiens, 48 h, read-out: IC50 HUVEC
Protocol: as §1

[6] = tested on: HT-29; test: MTT antiproliferative assay, HT-29; details: Homo sapiens, HT-29, 48 h, read-out: IC50 HT-29
Protocol: as §1

[7] = tested on: A549; test: MTT antiproliferative assay, A549; details: Homo sapiens, A549, 48 h, read-out: IC50 A549
Protocol: as §1

| melting point [°C] | IC50 [2] [µM] | IC50 [3] [µM] | IC50 [4] [µM] | IC50 [6] [µM] | IC50 [7] [µM] | SMILES | IC50 [1] [µM] | IC50 [5] [µM] |
| --- | --- | --- | --- | --- | --- | --- | --- | --- |
| 156 to 158 | 0.00373 ± 0.00062 | 0.15 ± 0.07 | 4.65 ± 0.93 | 0.94 ± 0.27 | 1.32 ± 0.35 | O=C(Nc1ccc(Oc2ccnc(Cl)c2Cl)c(F)c1)c1nc(-c2ccc(F)c(F)c2)cs1 [Compound 51an, N-(4-((2,3-Dichloropyridin-4-yl)oxy)-3-fluorophenyl)-4-(3,4-difluorophenyl)thiazole-2-carboxamide] | 9.54 ± 1.26 | 4.83 ± 0.69 |
| 113 to 115 | 0.0501 ± 0.00514 | 7.89 ± 1.35 | 38.6 ± 4.07 | 26.5 ± 1.42 | 22.5 ± 3.15 | COc1cc2nccc(Oc3ccc(NC(=O)c4nc(-c5ccc(F)cc5)ns4)cc3)c2cc1OC [Compound 51b, N-(4-((6,7-Dimethoxyquinolin-4-yl)oxy)phenyl)-3-(4-fluorophenyl)-1,2,4-thiadiazole-5-carboxamide] | > 100 | > 100 |
| 141 to 143 | 0.0457 ± 0.00388 | 6.94 ± 1.06 | 34.7 ± 2.58 | 29.3 ± 3.85 | 20.6 ± 1.96 | COc1cc2nccc(Oc3ccc(NC(=O)c4nnc(-c5ccccc5)s4)cc3)c2cc1OC [Compound 51c, N-(4-((6,7-Dimethoxyquinolin-4-yl)oxy)phenyl)-5-phenyl-1,3,4-thiadiazole-2-carboxamide] | 71.3 ± 5.25 | 53.5 ± 4.62 |
| 136 to 138 | 0.0415 ± 0.00276 | 6.65 ± 0.94 | 33.6 ± 4.35 | 24.6 ± 1.87 | 19 ± 2.46 | COc1cc2nccc(Oc3ccc(NC(=O)c4nnc(-c5ccc(F)cc5)s4)cc3)c2cc1OC [Compound 51d, N-(4-((6,7-Dimethoxyquinolin-4-yl)oxy)phenyl)-5-(4-fluorophenyl)-1,3,4-thiadiazole-2-carboxamide] | 68.6 ± 4.83 | 52.4 ± 3.85 |
| 63 to 65 | 0.0345 ± 0.00465 | 5.86 ± 0.93 | > 50 | 21.8 ± 1.66 | 16.6 ± 2.16 | COc1cc2nccc(Oc3ccc(NC(=O)c4nc(-c5ccccc5)cs4)cc3)c2cc1OC [Compound 51e, N-(4-((6,7-Dimethoxyquinolin-4-yl)oxy)phenyl)-4-phenylthiazole-2-carboxamide] | 64.5 ± 6.12 | 56.5 ± 4.81 |
| 260 to 262 | 0.0394 ± 0.00325 | 6.21 ± 0.85 | 32.8 ± 2.23 | 23.4 ± 1.58 | 17.4 ± 2.23 | COc1cc2nccc(Oc3ccc(NC(=O)c4ncc(-c5ccccc5)s4)cc3)c2cc1OC [Compound 51g, N-(4-((6,7-Dimethoxyquinolin-4-yl)oxy)phenyl)-5-phenylthiazole-2-carboxamide] | 54.5 ± 3.25 | 48.4 ± 2.54 |
| 252 to 254 | 0.0354 ± 0.00503 | 5.97 ± 0.98 | 34.2 ± 2.82 | 22.7 ± 3.32 | 16.8 ± 1.58 | COc1cc2nccc(Oc3ccc(NC(=O)c4ncc(-c5ccc(F)cc5)s4)cc3)c2cc1OC [Compound 51h, N-(4-((6,7-Dimethoxyquinolin-4-yl)oxy)phenyl)-5-(4-fluorophenyl)thiazole-2-carboxamide] | 50.2 ± 2.89 | 42.1 ± 4.35 |
| 112 to 114 | 0.0312 ± 0.00416 | 5.35 ± 0.84 | 35.5 ± 4.62 | 22.9 ± 2.43 | 15.6 ± 1.86 | COc1cc2nccc(Oc3ccc(NC(=O)c4nc(-c5ccccc5)cs4)c(F)c3)c2cc1OC [Compound 51i, N-(4-((6,7-Dimethoxyquinolin-4-yl)oxy)-2-fluorophenyl)-4-phenylthiazole-2-carboxamide] | 60.2 ± 5.33 | 44.3 ± 5.64 |
| 90 to 92 | 0.0295 ± 0.00342 | 4.58 ± 0.75 | 32.3 ± 2.78 | 19.6 ± 2.89 | 13.8 ± 1.76 | COc1cc2nccc(Oc3ccc(NC(=O)c4nc(-c5ccccc5)cs4)cc3F)c2cc1OC [Compound 51j, N-(4-((6,7-Dimethoxyquinolin-4-yl)oxy)-3-fluorophenyl)-4-phenylthiazole-2-carboxamide] | > 100 | 45.6 ± 5.12 |
| 201 to 203 | 0.033 ± 0.00266 | 6.87 ± 0.86 | 33.3 ± 4.21 | 23.4 ± 4.32 | 14.5 ± 1.64 | COc1cc2nccc(Oc3ccc(NC(=O)c4nc(-c5ccccc5)cs4)c(Cl)c3)c2cc1OC [Compound 51k, N-(2-Chloro-4-((6,7-dimethoxyquinolin-4-yl)oxy)phenyl)-4-phenylthiazole-2-carboxamide] | > 100 | > 100 |
| 146 to 148 | 0.0319 ± 0.00451 | 6.23 ± 0.72 | 32.1 ± 2.54 | 20.9 ± 3.56 | 13.2 ± 2.41 | COc1cc2nccc(Oc3ccc(NC(=O)c4nc(-c5ccccc5)cs4)cc3Cl)c2cc1OC [Compound 51l, N-(3-Chloro-4-((6,7-dimethoxyquinolin-4-yl)oxy)phenyl)-4-phenylthiazole-2-carboxamide] | 51.6 ± 3.96 | 40.9 ± 2.32 |
| 209 to 211 | 0.0398 ± 0.00547 | 6.43 ± 0.76 | 35.2 ± 4.23 | 22.3 ± 1.75 | 14.1 ± 1.87 | COc1cc2nccc(Oc3ccc(NC(=O)c4nc(-c5ccccc5)cs4)c(C)c3)c2cc1OC [Compound 51m, N-(4-((6,7-Dimethoxyquinolin-4-yl)oxy)-2-methylphenyl)-4-phenylthiazole-2-carboxamide] | 49.6 ± 5.04 | 38.8 ± 3.55 |
| 115 to 117 | 0.0296 ± 0.00384 | 4.23 ± 0.96 | 29.6 ± 3.54 | 18.7 ± 3.13 | 12.2 ± 1.63 | COc1cc2ncnc(Oc3ccc(NC(=O)c4nc(-c5ccccc5)cs4)cc3F)c2cc1OC [Compound 51o, N-(4-((6,7-Dimethoxyquinazolin-4-yl)oxy)-3-fluorophenyl)-4-phenylthiazole-2-carboxamide] | 50.3 ± 3.58 | 36.6 ± 4.23 |
| 188 to 190 | 0.0247 ± 0.00195 | 3.17 ± 0.84 | 28.1 ± 1.96 | 15.2 ± 2.26 | 9.83 ± 1.22 | COc1cc2ncnc(Oc3ccc(NC(=O)c4nc(-c5ccc(F)cc5)cs4)cc3F)c2cc1OC [Compound 51p, N-(4-((6,7-Dimethoxyquinazolin-4-yl)oxy)-3-fluorophenyl)-4-(4-fluorophenyl)thiazole-2-carboxamide] | 46.4 ± 6.24 | 33.6 ± 2.68 |
| 251 to 253 | 0.0385 ± 0.00423 | 5.95 ± 0.63 | 32.5 ± 2.68 | 19.4 ± 2.48 | 12.9 ± 1.82 | O=C(Nc1ccc(Oc2ccnc3ccsc23)c(F)c1)c1nc(-c2ccccc2)cs1 [Compound 51q, N-(3-Fluoro-4-(thieno[3,2-b]pyridin-7-yloxy)phenyl)-4-phenylthiazole-2-carboxamide] | 80.6 ± 4.52 | 69.5 ± 2.68 |
| 223 to 225 | 0.0353 ± 0.00519 | 5.02 ± 0.77 | 28.9 ± 3.13 | 18.3 ± 3.62 | 10.5 ± 1.76 | O=C(Nc1ccc(Oc2ccnc3ccsc23)c(F)c1)c1nc(-c2ccc(F)cc2)cs1 [Compound 51r, N-(3-Fluoro-4-(thieno[3,2-b]pyridin-7-yloxy)phenyl)-4-(4-fluorophenyl)thiazole-2-carboxamide] | 51.2 ± 4.61 | 40.6 ± 2.25 |
